{"source": "patent EP1173217B1", "about": "“ENHANCED DELIVERY OF NUCLEIC ACID-BASED DRUGS” (Merrion Research I Limited, priority 1999, dated 2000)", "key": {"[1]": {"tested_on": "non-differentiated Caco-2 cells", "experimental": "Caco-2 cells were seeded on coverslips treated with polylysine at a concentration of approximately 2.5 - 5x10^5 cells/ml and grown to confluence. Cells were washed once with PBS without Ca^2+, Mg^2+. 1-2 ml of PBS w/o Ca^2+, Mg^2+ containing antisense oligonucleotides +/- enhancers was added and cells were incubated for 30 min at 37°C. Variations to this protocol by pre-incubating cells with enhancers (40min), washing with PBS w/o Ca^2+, Mg^2+ and then incubating with antisense oligonucleotides for 30min were also analysed.\nTwo different FITC labelled antisense oligonucleotides were used: FITC-labelled ELNG05 (5'-[…]-3'; complementary to a sequence in the human BCR-Abl mRNA) and FITC-labelled S-PTH-05 (5'-[…]-3', complementary to sequence 153-170 of the human HPT1 receptor mRNA). […] The uptake of antisense oligonucleotides was also analysed in the absence of enhancers for variable periods of time (30min - 60min). Following incubation, cells were washed twice with PBS w/o Ca^2+, Mg^2+ and stained with 1µg/ml TexasRed-DHPE (dihexadecanoylglycerophosphoethanolamine, Molecular Probe T-1395) for 15min at 37°C, washed extensively and fixed with paraformaldeyde pH shift (Barcallo, 1995) and mounted for analysis by confocal laser scanning microscopy (CLSM).\nAfter two washes with PBS w/o Ca^2+ and Mg^2+, the cells were incubated with 2ml of FITC-antisense oligonucleotide (ELNG05) at a concentration of 10µM in PBS w/o Ca^2+ and Mg^2+ and incubated at 37°C for 30min.\nCaco-2 cells were incubated with 1ml of antisense +/- enhancers in PBS w/o Ca^2+ and Mg^2+ and incubated for 30min at 37°C. Two different fluorescently labelled antisense oligonucleotides were used in these experiments at a concentration of 10µM: ELNG05 (antisense to BCR-Ab1) and S-PTH-05 (antisense to HPT1 receptor). […] The uptake of antisense was also analysed in the absence of enhancers for 30min and 60min as control."}, "Caco-2 cells": {"tested_on": "Caco-2 cells", "details": "cationic lipid (lipofectamine): plasmid DNA complex alone set at 100%; β-galactosidase 24 hours post transfection; enhancer concentration not given in the sentence (C8 30 or 5mM, C10 5 or 1mM tested)"}}, "note": "Like-named read-outs stand apart in the source and are kept apart here.", "data": [{"smiles": "CCCCCCCCCC(=O)[O-].[Na+]", "note": "[C10, sodium caprate]", "values": [{"measurement": "cell permeation / intracellular staining with TexasRed-DHPE and FITC-oligonucleotide (CLSM)", "setting": "[1]; Experiment a, C10 at 10-13mM pre-incubated 40min, then 10µM FITC-ELNG05 30min", "value": "permeated completely the cells"}, {"measurement": "uptake of antisense (CLSM)", "setting": "[1]; Experiment b, C10 2.6 mM together with 10µM antisense, 30min", "value": "did not increase the uptake of antisense"}, {"measurement": "effect on Caco-2 cell adherence", "setting": "[1]; Experiment b, C10 13mM, 30min", "value": "loss of adherence of Caco-2 cells"}, {"measurement": "staining of cells (CLSM)", "setting": "[1]; Experiment c, C10 8mM with 10µM antisense, 30min", "value": "only punctate staining, similar to the control"}, {"measurement": "staining of cells (CLSM)", "setting": "[1]; Experiment c, C10 10mM with 10µM antisense, 30min", "value": "completely stained"}, {"measurement": "effect on cells", "setting": "[1]; Experiment c, C10 between 13mM and 8mM, 30min", "value": "destruction of cells"}, {"measurement": "efficiency of transfection", "setting": "Caco-2 cells", "value": 245, "unit": "%"}]}]}
